# Read-outs that look alike come from different tables or passages of the source.
# Assays:
# [1] = test system: LNCaP tumor-bearing mice; assay: Biodistribution in LNCaP tumor-bearing mice; conditions: for AUCTu(0→48 h)-to-AUCKi(0→48 h) ratio: LNCaP model (male mice); for AUCTu(0→48 h)-to-AUCKi(0→48 h) ratio / AUC0→48h, Kidneys / AUC0→48h, LNCaP tumor: average ± SE, non-decay-corrected
# [2] = test system: LNCaP tumor cells
# Method: The cells were cultured in RPMI-1640 cell culture medium supplemented with 10% fetal calf serum, L-glutamine, and antibiotics. Puromycin (2 μg/mL) was used to maintain PSMA expression as previously reported [24]. […] The cells were cultured under standard cell culture conditions in RPMI-1640 medium supplemented with 10% fetal calf serum, L-glutamine, antibiotics, and pyruvate (1 mM).
# In brief, PC-3 PIP and LNCaP tumor cells were seeded in 12-well plates (3 × 10^5 cells and 1 × 10^6 cells in 2 mL medium/well, respectively) and incubated overnight. Both PSMA radioligands were applied at variable molar concentrations (0.75–500 nM) but at a constant activity concentration of 37.5 kBq/mL. The tumor cells were incubated for 4 h followed by washing steps and detachment of the cells for counting in a γ-counter (Perkin Elmer, Wallac Wizard 1480). The studies were performed in three independent experiments of six replicates. Statistical analysis was performed using a two-way ANOVA with Tukey’s and Sidak’s multiple comparison post-test in Graph Pad Prism (version 8) for different concentrations of the same radioligand and for the two radioligands at the same concentration, respectively. A p value of < 0.05 was considered statistically significant.
# Both tumor cell types were kept in a humidified atmosphere at 37 °C and 5% CO2. Routine cell culture
# was performed twice a week using PBS/EDTA (2 mM) and trypsin for cell detachment.
# internalization of the radioligands into PC-3 PIP and LNCaP tumor cells.
# Methods: Uptake and internalization studies were performed with PC-3 PIP and LNCaP tumor cells
# using variable concentrations of the respective ligand but constant activity concentrations. PC-3 PIP
# and LNCaP cells were seeded in 12-well plates and incubated at 37 °C and 5% CO2 overnight.
# Experiments with LNCaP cells were performed with poly -L-lysine-coated well plates to ensure better
# cell adherence. The radioligand solution was diluted using saline containing 0.05% bovine serum
# albumin (BSA) to avoid adherence to the vial. A defined volume of 25 µL (corresponding to 37.5 kBq)
# of this solution was added to the cell monolayers after the addition of 975 µL cell culture medium
# without supplements. The final molar concentrations in each well ranged from 0.75 nM to 500 nM.
# After incubation of the cells for 4 h, several washing steps were performed using PBS for determination
# [3] = test system: PC-3 PIP/flu tumor-bearing mice; conditions: PC-3 PIP model, 1.0 nmol, ref Deberle et al. [21], cited from earlier work
# [4] = LNCaP model, 4 h p.i., 0.05 nmol
# [5] = LNCaP model, 4 h p.i., 1.0 nmol
# [6] = LNCaP model, 24 h p.i., 0.05 nmol
# [7] = LNCaP model, 24 h p.i., 1.0 nmol
# [8] = LNCaP model, 48 h p.i., 0.05 nmol
# [9] = LNCaP model, 48 h p.i., 1.0 nmol
compound,measurement,setting,value
"CC(C)Cc1ccc(C(C)C(=O)NC(CCN)C(=O)NCCCCC(NC(=O)CN2CCN(CC(=O)O)CCN(CC(=O)O)CCN(CC(=O)O)CC2)C(=O)NCC2CCC(C(=O)NC(Cc3ccc4ccccc4c3)C(=O)NCCCCC(NC(=O)NC(CCC(=O)O)C(=O)O)C(=O)O)CC2)cc1 (centres unmarked) [[^177Lu]Lu-Ibu-DAB-PSMA, metal not drawn]",AUCTu(0→48 h)-to-AUCKi(0→48 h) ratio,[1]; 0.05 nmol,0.89 ± 0.25
same,AUCTu(0→48 h)-to-AUCKi(0→48 h) ratio,[1]; 1.0 nmol,1.2 ± 0.2
same,"AUC0→48h, Kidneys","[1]; LNCaP model, 0.05 nmol",815 ± 103 % IA/g*h
same,"AUC0→48h, LNCaP tumor","[1]; LNCaP model, 0.05 nmol",721 ± 115 % IA/g*h
same,Increase of tumor-to-kidney AUC0→48 h ratio for high vs low molar amount of injected ligand,"[1]; LNCaP model, 1.0 nmol vs 0.05 nmol",1.3 fold
same,"AUC0→48h, Kidneys","[1]; LNCaP model, 1.0 nmol",349 ± 21 % IA/g*h
same,"AUC0→48h, LNCaP tumor","[1]; LNCaP model, 1.0 nmol",402 ± 38 % IA/g*h
same,"Tissue distribution, Blood",[1]; [4],1.6 ± 0.3 % IA/g
same,"Tissue distribution, Bone",[1]; [4],0.63 ± 0.33 % IA/g
same,"Tissue distribution, Heart",[1]; [4],0.61 ± 0.13 % IA/g
same,"Tissue distribution, Intestines",[1]; [4],0.33 ± 0.03 % IA/g
same,"Tissue distribution, Kidneys",[1]; [4],58 ± 10 % IA/g
same,"Tissue distribution, LNCaP tumor",[1]; [4],18 ± 3 % IA/g
same,"Tissue distribution, Liver",[1]; [4],1.3 ± 0.1 % IA/g
same,"Tissue distribution, Lung",[1]; [4],1.4 ± 0.2 % IA/g
same,"Tissue distribution, Muscle",[1]; [4],1.5 ± 1.9 % IA/g
same,"Tissue distribution, Salivary glands",[1]; [4],0.59 ± 0.14 % IA/g
same,"Tissue distribution, Spleen",[1]; [4],1.5 ± 0.4 % IA/g
same,"Tissue distribution, Stomach",[1]; [4],0.32 ± 0.06 % IA/g
same,Tumor-to-blood ratio,[1]; [4],12 ± 1
same,Tumor-to-kidney ratio,[1]; [4],0.32 ± 0.03
same,Tumor-to-liver ratio,[1]; [4],14 ± 1
same,"Tissue distribution, Blood",[1]; [5],0.87 ± 0.29 % IA/g
same,"Tissue distribution, Bone",[1]; [5],0.39 ± 0.17 % IA/g
same,"Tissue distribution, Heart",[1]; [5],0.41 ± 0.11 % IA/g
same,"Tissue distribution, Intestines",[1]; [5],0.23 ± 0.05 % IA/g
same,"Tissue distribution, Kidneys",[1]; [5],16 ± 1 % IA/g
same,"Tissue distribution, LNCaP tumor",[1]; [5],12 ± 2 % IA/g
same,"Tissue distribution, Liver",[1]; [5],0.82 ± 0.09 % IA/g
same,"Tissue distribution, Lung",[1]; [5],0.78 ± 0.19 % IA/g
same,"Tissue distribution, Muscle",[1]; [5],0.22 ± 0.14 % IA/g
same,"Tissue distribution, Salivary glands",[1]; [5],0.38 ± 0.08 % IA/g
same,"Tissue distribution, Spleen",[1]; [5],0.45 ± 0.08 % IA/g
same,"Tissue distribution, Stomach",[1]; [5],0.22 ± 0.06 % IA/g
same,Tumor-to-blood ratio,[1]; [5],15 ± 5
same,Tumor-to-kidney ratio,[1]; [5],0.71 ± 0.10
same,Tumor-to-liver ratio,[1]; [5],14 ± 1
same,"Tissue distribution, Blood",[1]; [6],0.16 ± 0.03 % IA/g
same,"Tissue distribution, Bone",[1]; [6],< 0.10 % IA/g
same,"Tissue distribution, Heart",[1]; [6],0.11 ± 0.02 % IA/g
same,"Tissue distribution, Intestines",[1]; [6],0.10 ± 0.01 % IA/g
same,"Tissue distribution, Kidneys",[1]; [6],5.9 ± 1.5 % IA/g
same,"Tissue distribution, LNCaP tumor",[1]; [6],18 ± 7 % IA/g
same,"Tissue distribution, Liver",[1]; [6],0.48 ± 0.08 % IA/g
same,"Tissue distribution, Lung",[1]; [6],0.24 ± 0.03 % IA/g
same,"Tissue distribution, Muscle",[1]; [6],< 0.10 % IA/g
same,"Tissue distribution, Salivary glands",[1]; [6],0.18 ± 0.03 % IA/g
same,"Tissue distribution, Spleen",[1]; [6],0.35 ± 0.06 % IA/g
same,"Tissue distribution, Stomach",[1]; [6],0.13 ± 0.04 % IA/g
same,Tumor-to-blood ratio,[1]; [6],116 ± 37
same,Tumor-to-kidney ratio,[1]; [6],3.2 ± 1.1
same,Tumor-to-liver ratio,[1]; [6],39 ± 13
same,"Tissue distribution, Blood",[1]; [7],0.19 ± 0.03 % IA/g
same,"Tissue distribution, Bone",[1]; [7],0.14 ± 0.03 % IA/g
same,"Tissue distribution, Heart",[1]; [7],0.12 ± 0.02 % IA/g
same,"Tissue distribution, Intestines",[1]; [7],0.12 ± 0.03 % IA/g
same,"Tissue distribution, Kidneys",[1]; [7],6.8 ± 1.1 % IA/g
same,"Tissue distribution, LNCaP tumor",[1]; [7],8.8 ± 2.2 % IA/g
same,"Tissue distribution, Liver",[1]; [7],0.45 ± 0.07 % IA/g
same,"Tissue distribution, Lung",[1]; [7],0.23 ± 0.03 % IA/g
same,"Tissue distribution, Muscle",[1]; [7],< 0.10 % IA/g
same,"Tissue distribution, Salivary glands",[1]; [7],0.16 ± 0.02 % IA/g
same,"Tissue distribution, Spleen",[1]; [7],0.21 ± 0.06 % IA/g
same,"Tissue distribution, Stomach",[1]; [7],0.23 ± 0.10 % IA/g
same,Tumor-to-blood ratio,[1]; [7],46 ± 12
same,Tumor-to-kidney ratio,[1]; [7],1.3 ± 0.2
same,Tumor-to-liver ratio,[1]; [7],20 ± 3
same,"Tissue distribution, Blood",[1]; [8],0.10 ± 0.02 % IA/g
same,"Tissue distribution, Bone",[1]; [8],< 0.10 % IA/g
same,"Tissue distribution, Heart",[1]; [8],< 0.10 % IA/g
same,"Tissue distribution, Intestines",[1]; [8],< 0.10 % IA/g
same,"Tissue distribution, Kidneys",[1]; [8],2.0 ± 0.3 % IA/g
same,"Tissue distribution, LNCaP tumor",[1]; [8],16 ± 5 % IA/g
same,"Tissue distribution, Liver",[1]; [8],0.50 ± 0.10 % IA/g
same,"Tissue distribution, Lung",[1]; [8],0.16 ± 0.04 % IA/g
same,"Tissue distribution, Muscle",[1]; [8],< 0.10 % IA/g
same,"Tissue distribution, Salivary glands",[1]; [8],0.11 ± 0.01 % IA/g
same,"Tissue distribution, Spleen",[1]; [8],0.31 ± 0.08 % IA/g
same,"Tissue distribution, Stomach",[1]; [8],< 0.10 % IA/g
same,Tumor-to-blood ratio,[1]; [8],155 ± 31
same,Tumor-to-kidney ratio,[1]; [8],7.7 ± 1.7
same,Tumor-to-liver ratio,[1]; [8],32 ± 7
same,"Tissue distribution, Blood",[1]; [9],0.09 ± 0.02 % IA/g
same,"Tissue distribution, Bone",[1]; [9],< 0.10 % IA/g
same,"Tissue distribution, Heart",[1]; [9],< 0.10 % IA/g
same,"Tissue distribution, Intestines",[1]; [9],< 0.10 % IA/g
same,"Tissue distribution, Kidneys",[1]; [9],2.4 ± 0.5 % IA/g
same,"Tissue distribution, LNCaP tumor",[1]; [9],9.5 ± 1.1 % IA/g
same,"Tissue distribution, Liver",[1]; [9],0.57 ± 0.09 % IA/g
same,"Tissue distribution, Lung",[1]; [9],0.14 ± 0.03 % IA/g
same,"Tissue distribution, Muscle",[1]; [9],< 0.10 % IA/g
same,"Tissue distribution, Salivary glands",[1]; [9],< 0.10 % IA/g
same,"Tissue distribution, Spleen",[1]; [9],0.24 ± 0.04 % IA/g
same,"Tissue distribution, Stomach",[1]; [9],< 0.10 % IA/g
same,Tumor-to-blood ratio,[1]; [9],105 ± 14
same,Tumor-to-kidney ratio,[1]; [9],4.2 ± 0.7
same,Tumor-to-liver ratio,[1]; [9],17 ± 2
same,"Tissue distribution, Blood","[1]; LNCaP model, 48 h p.i., 1.0 nmol, listed as [177Lu]Lu-Ibu-DAB-PSMA",< 0.10 % IA/g
same,Absolute amount of internalized radioligand,[2]; 0.00075 µM,14–21 % of total added activity
same,Internalized fraction,[2]; 4 h,> 60 % of total uptake
same,Cell uptake,"[2]; 4 h, 0.00075 µM",~ 34%
same,Cell uptake,"[2]; 4 h, 0.0075 µM",~ 16%
same,Cell uptake,"[2]; 4 h, 0.025 µM",~ 6%
same,Cell uptake,"[2]; 4 h, 0.5 µM",< 1%
same,"Tissue distribution, Blood",[3]; 4 h p.i.,3.7 ± 0.5 % IA/g
same,"Tissue distribution, Bone",[3]; 4 h p.i.,0.62 ± 0.08 % IA/g
same,"Tissue distribution, Heart",[3]; 4 h p.i.,1.3 ± 0.1 % IA/g
same,"Tissue distribution, Intestines",[3]; 4 h p.i.,0.71 ± 0.05 % IA/g
same,"Tissue distribution, Kidneys",[3]; 4 h p.i.,19 ± 2 % IA/g
same,"Tissue distribution, Liver",[3]; 4 h p.i.,1.5 ± 0.1 % IA/g
same,"Tissue distribution, Lung",[3]; 4 h p.i.,2.4 ± 0.3 % IA/g
same,"Tissue distribution, Muscle",[3]; 4 h p.i.,0.54 ± 0.09 % IA/g
same,"Tissue distribution, PC-3 PIP tumor",[3]; 4 h p.i.,66 ± 11 % IA/g
same,"Tissue distribution, PC-3 flu tumor",[3]; 4 h p.i.,1.2 ± 0.3 % IA/g
same,"Tissue distribution, Salivary glands",[3]; 4 h p.i.,0.86 ± 0.38 % IA/g
same,"Tissue distribution, Spleen",[3]; 4 h p.i.,1.1 ± 0.1 % IA/g
same,"Tissue distribution, Stomach",[3]; 4 h p.i.,0.62 ± 0.12 % IA/g
same,Tumor-to-blood ratio,[3]; 4 h p.i.,18 ± 3
same,Tumor-to-kidney ratio,[3]; 4 h p.i.,3.0 ± 0.5
same,Tumor-to-liver ratio,[3]; 4 h p.i.,45 ± 8
same,"Tissue distribution, Blood",[3]; 24 h p.i.,0.16 ± 0.02 % IA/g
same,"Tissue distribution, Bone",[3]; 24 h p.i.,< 0.10 % IA/g
same,"Tissue distribution, Heart",[3]; 24 h p.i.,0.10 ± 0.01 % IA/g
same,"Tissue distribution, Intestines",[3]; 24 h p.i.,0.11 ± 0.03 % IA/g
same,"Tissue distribution, Kidneys",[3]; 24 h p.i.,6.0 ± 0.7 % IA/g
same,"Tissue distribution, Liver",[3]; 24 h p.i.,0.56 ± 0.10 % IA/g
same,"Tissue distribution, Lung",[3]; 24 h p.i.,0.21 ± 0.03 % IA/g
same,"Tissue distribution, Muscle",[3]; 24 h p.i.,0.05 ± 0.01 % IA/g
same,"Tissue distribution, PC-3 PIP tumor",[3]; 24 h p.i.,52 ± 3 % IA/g
same,"Tissue distribution, PC-3 flu tumor",[3]; 24 h p.i.,0.17 ± 0.01 % IA/g
same,"Tissue distribution, Salivary glands",[3]; 24 h p.i.,0.56 ± 0.37 % IA/g
same,"Tissue distribution, Spleen",[3]; 24 h p.i.,0.32 ± 0.03 % IA/g
same,"Tissue distribution, Stomach",[3]; 24 h p.i.,0.18 ± 0.13 % IA/g
same,Tumor-to-blood ratio,[3]; 24 h p.i.,337 ± 40
same,Tumor-to-kidney ratio,[3]; 24 h p.i.,8.9 ± 1.0
same,Tumor-to-liver ratio,[3]; 24 h p.i.,98 ± 21
same,"Tissue distribution, Blood",[3]; 48 h p.i.,0.10 ± 0.04 % IA/g
same,"Tissue distribution, Bone",[3]; 48 h p.i.,< 0.10 % IA/g
same,"Tissue distribution, Heart",[3]; 48 h p.i.,< 0.10 % IA/g
same,"Tissue distribution, Intestines",[3]; 48 h p.i.,< 0.10 % IA/g
same,"Tissue distribution, Kidneys",[3]; 48 h p.i.,4.1 ± 0.8 % IA/g
same,"Tissue distribution, Liver",[3]; 48 h p.i.,0.49 ± 0.08 % IA/g
same,"Tissue distribution, Lung",[3]; 48 h p.i.,0.14 ± 0.04 % IA/g
same,"Tissue distribution, Muscle",[3]; 48 h p.i.,< 0.10 % IA/g
same,"Tissue distribution, PC-3 PIP tumor",[3]; 48 h p.i.,36 ± 10 % IA/g
same,"Tissue distribution, PC-3 flu tumor",[3]; 48 h p.i.,0.15 ± 0.04 % IA/g
same,"Tissue distribution, Salivary glands",[3]; 48 h p.i.,< 0.10 % IA/g
same,"Tissue distribution, Spleen",[3]; 48 h p.i.,0.26 ± 0.08 % IA/g
same,"Tissue distribution, Stomach",[3]; 48 h p.i.,< 0.10 % IA/g
same,Tumor-to-blood ratio,[3]; 48 h p.i.,364 ± 67
same,Tumor-to-kidney ratio,[3]; 48 h p.i.,8.7 ± 1.8
same,Tumor-to-liver ratio,[3]; 48 h p.i.,72 ± 11

# Reference: publication PMC8803738, “Impact of the mouse model and molar amount of injected ligand on the tissue distribution profile of PSMA radioligands” (European Journal of Nuclear Medicine and Molecular Imaging, 2021)
